In patent US9283242B2, “Uses of dihydro bases” (priority 2013, dated 2016):
“Also recorded” adds a separate entry of the source.

Key:
[1] = Variable temperature 1H NMR, tautomerism in DMF-d7; assay type: physicochemical; conditions: DMF-d7, 20 to −60° C.
Procedure: At 20° C., exchangeable protons on the base moiety are observed at 7.58 ppm and 4.14 ppm (FIG. 10). At −60° C., exchangeable protons on the base moiety are observed at 8.70 ppm, 8.08 ppm, and 4.68 ppm (FIG. 11). Protons with a chemical shift of 8.70, 8.08, and 7.58 ppm likely correspond to enolic, amido, or imino protons, while protons with a chemical shift of 4.68 and 4.14 ppm likely correspond to amino protons. The expected chemical shifts for enolic, amido, and imino protons are relatively close, and thus these species cannot be assigned at this stage. […] Only the existence of multiple tautomeric species would explain the presence of three exchangeable protons resonances. […] Based on their chemical structures, the keto-amino tautomer will pair with guanine and the keto-imino/enol-imino tautomers can pair with adenine.
All NMR experiments were performed on Varian 500 MHz NMR spectrometers. The deuterated solvent DMF-d7 was from Cambridge Isotope Laboratories, Andover, Mass., USA. 5-Aza-5,6-dihydro-2′-deoxycytidine (KP1212) nucleoside was from Berry & Associates Inc., Dexter, Mich., USA. The NMR sample was prepared by dissolving 10 mg of KP1212 nucleoside in 1.0 ml DMF-d7 (final concentration ˜44 mM). ^1H NMR spectra were reported in parts per million (ppm) and were referenced to the signals for DMF-d7 (8.03 ppm). ^13C NMR spectra were referenced to the signals for DMF-d7 (163.15 ppm).
FIG. 14A depicts the structures of all five possible tautomers (1 to 5) of KP1212, among which the three active protons on the nucleobase shift among the 02, N3, N4 and N5 positions. […] Before assigning the three active protons on the nucleobase moiety, all non-exchangeable protons in KP1212 and the two hydroxyl protons on the 3′ and 5′ positions were identified by carrying out 1D (^1H and ^13C) and 2D (COSY, HSQC, and HMBC) NMR experiments. The NMR signals of the three active protons in the base portion of KP1212 were studied at different temperatures. […] When the temperature was decreased to −50° C., the three broad peaks resolved into six distinct proton resonances (FIG. 14B, denoted as peaks i-vi), which could be assigned to imino (designated as e and n in FIGS. 14A to 14C), amido (designated as g and m), enolic (designated as c and d) or amino (designated as a, b, f, h, i, j, k, l, and o) protons.
At −50° C. six distinct proton resonances (FIG. 14B, i to vi) were observed, attributable to protons bound either to nitrogen or to oxygen atom (for only the base portion of the KP1212 molecule). Integration of the six broad peaks permitted estimation of the relative ratios of the five tautomeric species that exist in solution (FIG. 14A).
The NMR data also allowed the determination of the relative ratios of the tautomeric species present in the DMF solution at −50° C. (FIGS. 14B and 14C). Several peaks in the NMR spectrum partially overlapped (e.g., iv and v), so the raw data were reconstructed using a least squares fit algorithm (FIG. 16). The reconstructed peaks from the simulation were integrated, yielding an estimate of the relative amounts of each of the proton resonances in the spectrum. […] 2) Based on the peak assignments from part 1), a system of linear equations was set up using the relative amounts of tautomers as unknown variables (FIG. 14D). Each NMR peak provided a linear equation whereby the peak area should be equal to the sum of all tautomers (as relative amounts) containing protons that contribute to that peak. The solutions of these equations yielded the relative ratios of the tautomeric species present in DMF at −50° C. (FIG. 14D).

[2] = system: HK82 (AlkB−) E. coli cells; assay type: cell-based
HK82SOS = assay: CRAB lesion bypass assay, HK82SOS cells; assay type: cell-based, E. coli; conditions: percentage relative to unmodified control genome
Text: (§1) All E. coli strains used in this work contain the F′ episome, which enables infection by M13 phage. GW5100 strain was used for large scale preparation of M13 phage DNA, SCS 110 (JM110, end Al) was used for amplification of progeny phage post-electroporation, and NR9050 was the strain of choice for double agar plating with X-GAL for blue-clear detection of plaques. The E. coli strains used to replicate lesion-containing phage were HK81 (as AB1157, but nalA) and HK82 (as AB1157, but nalA alkB22; AlkB-deficient).
Lesion-containing genomes were mixed with the competitor genome (80:20 molar ratio) and electroporated in triplicate into 100 μl competent cells using a 2 mm-gap cuvette and a BTX electroporator set to 2.5 kV and 125 a Typical pulse lengths were 4.9 msec. The cells were immediately transferred to 10 ml LB and an aliquot was immediately plated using the agar overlay method to verify that a minimum of 10^5 independent initial electroporation events occurred in 10 ml of culture. Incubation for 6 h at 37° C. with aeration generated the progeny phage, which were then reamplified in SCS 110 cells (10 μl overnight culture and 100 μl of the 6 h supernatant in 10 ml LB) to dilute out the residual genomic DNA used for electroporation. Single-stranded M13 progeny phage DNA was isolated from 1.4 ml of supernatant using a Q1Aprep Spin M13 Kit with final DNA suspension in 100 μl elution buffer. CRAB forward and reverse primers were used to amplify the region of interest from 15 μl per Q1Aprep elution sample in a total volume of 25 μl containing 50 pmol of each primer, 1×Pfu Turbo buffer, 1.25 U Pfu Turbo DNA polymerase and […] of each dNTP. The PCR program used 30 cycles of 67° C. (1 min) annealing and 72° C. (1 min) extensions. […] The gels were visualized on a phosphorimager (Typhoon 7000, GE Healthcare Life Sciences); the band intensities were quantified using IMAGEJ software (National Institutes of Health). Lesion bypass was calculated as the percentage ratio of the intensity of the 18-mer band (lesion signal) to the intensity of the 21-mer band (competitor signal). […]

[3] = system: HK81 (AlkB+) E. coli cells; assay type: cell-based
Procedure: (A) A 16mer oligonucleotide containing KP1212 (SEQ ID NO: 1) (or controls) at a specific site was chemically synthesized and ligated into the genome of an M13 bacteriophage. (B) The KP1212-containing M13 genomes were replicated within E. coli cells. Progeny were analyzed to characterize the amount and the type of nucleic acid base placed opposite the lesion during replication. The relative reduction in lesion vs. non-lesion competitor progeny formation was used as an estimate of the extent to which KP1212 and m3C inhibited DNA replication. (C) The KP1212-containing M13 genomes were used as templates for in vitro polymerase extension assays, carried out at 72° C., using the high-fidelity DNA polymerase PfuTurbo. (D) Bypass efficiency (CRAB assay) of KP1212, m3C, C in HK81 (AlkB^+) and HK82 (AlkB^−) E. coli cells. m3C and undamaged C were used as controls. Genomes were made and normalized to one another before being combined with a competitor genome. Each mixture was transformed into the corresponding cell strain in triplicate, and bypass efficiency was calculated by using the undamaged C genome as 100% bypass, with error bars representing one standard deviation. (E) Mutagenesis (REAP assay) of KP1212, m3C, and C in HK82 (AlkB^−) E. coli cells. m3C, undamaged C, and an approximately equimolar mixture of genomes carrying unmodified G/A/T/C bases at the site of inquiry (denoted as GATC) were used as controls. Genomes containing the lesions of interest were transfected into E. coli in triplicate.
as §1

[4] = system: HK82 (AlkB−) E. coli cells; assay type: cell-based; remark: listed apart in the source
HK82-SOS = assay: REAP mutagenesis assay, HK82-SOS cells; assay type: cell-based, E. coli; conditions: (b) HK82-SOS
Text: as §1
(§2) Lesion-containing genomes were mixed with the competitor genome (80:20 molar ratio) and electroporated in triplicate into 100 μl competent cells using a 2 mm-gap cuvette and a BTX electroporator set to 2.5 kV and 125 a Typical pulse lengths were 4.9 msec. The cells were immediately transferred to 10 ml LB and an aliquot was immediately plated using the agar overlay method to verify that a minimum of 10^5 independent initial electroporation events occurred in 10 ml of culture. Incubation for 6 h at 37° C. with aeration generated the progeny phage, which were then reamplified in SCS 110 cells (10 μl overnight culture and 100 μl of the 6 h supernatant in 10 ml LB) to dilute out the residual genomic DNA used for electroporation. Single-stranded M13 progeny phage DNA was isolated from 1.4 ml of supernatant using a Q1Aprep Spin M13 Kit with final DNA suspension in 100 μl elution buffer. CRAB forward and reverse primers were used to amplify the region of interest from 15 μl per Q1Aprep elution sample in a total volume of 25 μl containing 50 pmol of each primer, 1×Pfu Turbo buffer, 1.25 U Pfu Turbo DNA polymerase and […] of each dNTP. The PCR program used 30 cycles of 67° C. (1 min) annealing and 72° C. (1 min) extensions. After purification using QIAQUICK PCR purification columns, 4 μl of the PCR product were treated with BbsI (1.5 U) and SAP (0.3 U) in a total volume of 6 μl by incubating at 37° C. for 4 h. After phosphatase inactivation, (80° C. for 5 min), the 5′ ends were then radiolabeled using [γ-^32P]-ATP (1.66 pmol, 10 μCi/μl, 6000 Ci/mmol), cold ATP (16 pmol) and 5 U of OPTIKINASE at 37° C. for 30 min. Following the kinase inactivation at 65° C. for 20 min, the labeled product was then trimmed by HaeIII (10 U in a final volume of 10 μl) at 37° C. for 2 h, and diluted 1:1 in formamide loading dye. PAGE separation on a 20% denaturing gel, run for about 3.5 h at 550 V, until the xylene cyanol dye migrated 10.5 cm, yielded two bands for each sample: an 18-mer originating from the lesion-containing genome and a 21-mer originating from the competitor genome. The gels were visualized on a phosphorimager (Typhoon 7000, GE Healthcare Life Sciences); the band intensities were quantified using IMAGEJ software (National Institutes of Health). Lesion bypass was calculated as the percentage ratio of the intensity of the 18-mer band (lesion signal) to the intensity of the 21-mer band (competitor signal).
(§3) The REAP assay methodology is identical to the CRAB assay except for the PCR primers, which amplified only the progeny DNA originating from the lesion-carrying genomes. Following electrophoresis, the 18-mer bands were excised from the gel, crushed and extracted with 200 μl water. After desalting with SEPHADEX G-50 Fine resin spin columns, the samples were lyophilized to dryness, resuspended in 5 μl containing 1 μg P1 Nuclease in 30 mM sodium acetate (pH 5.3) and 10 mM zinc chloride, and incubated at 50° C. for 1 h. One μl of each sample was then spotted onto PEI-TLC plates and separated using 200 ml of a saturated solution of (NH4)2HPO4 adjusted to pH 5.8. After 24 h of development, the TLC plates were air-dried and quantified using phosphorimagery. […]

[5] = system: HK81 (AlkB+) E. coli cells; assay: REAP mutagenesis assay, HK81 cells; assay type: cell-based
Text: as §1, §2, §3

Nc1ncn([C@H]2C[C@H](O)[C@@H](CO)O2)c(=O)n1 [5-Aza-dC, 5-aza-2′-deoxycytidine]
tautomerism by Variable Temperature NMR [1]: does not show multiple tautomerism; also recorded: single tautomerism

NC1=NC(=O)N(C2CC(O)C(CO)O2)CC1 (centres unmarked) [DHdC]
tautomerism by Variable Temperature NMR [1]: shows multiple tautomerism; also recorded: multiple tautomers

Cn1c(N)ccnc1=O [m3C, 3-methylcytosine]
replication block / toxicity to replication ([2]; E. coli (FIG. 18D), for m3C cells that lack AlkB): very toxic to replication | Polymerase bypass efficiency, Avg. ([2]; HK82, percentage relative to unmodified control genome, triplicate): 14% | Polymerase bypass efficiency, Avg. (HK82SOS): 45% | Polymerase bypass efficiency, Avg. ([3]; HK81, percentage relative to unmodified control genome): 113% | toxicity to replication ([3]; cells that expressed the repair enzyme AlkB): toxicity was abolished | Mutagenicity, Average % A ([4]; (a) HK82): 30.6% | Mutagenicity, Average % C ([4]; (a) HK82): 13.2% | Mutagenicity, Average % G ([4]; (a) HK82): 1.3% | Mutagenicity, Average % T ([4]; (a) HK82): 54.9% | base pairing / mutagenicity (in words) ([4]; FIGS. 18C, 18E, m3C in repair deficient cells): mispair with both A and T | Mutagenicity, Average % A (HK82-SOS): 33.6% | Mutagenicity, Average % C (HK82-SOS): 5.7% | Mutagenicity, Average % G (HK82-SOS): 3.2% | Mutagenicity, Average % T (HK82-SOS): 57.5% | Mutagenicity, Average % C [5]: 100.0% | Mutagenicity, Average % A ([5]; (c) HK81): 0.0% | Mutagenicity, Average % G ([5]; (c) HK81): 0.0% | Mutagenicity, Average % T ([5]; (c) HK81): 0.0%
